The text below walks through data of patent US20210070748A1, “INHIBITORS OF BRUTONS TYROSINE KINASE” (Pharmacyclics LLC, priority 2015, published 2021).

The IC50 is the concentration that gives 50% inhibition.

The target of assay [1] is T1, JAK3 (Homo sapiens, UniProt P52333).
T1 sequence (P52333 1-1124): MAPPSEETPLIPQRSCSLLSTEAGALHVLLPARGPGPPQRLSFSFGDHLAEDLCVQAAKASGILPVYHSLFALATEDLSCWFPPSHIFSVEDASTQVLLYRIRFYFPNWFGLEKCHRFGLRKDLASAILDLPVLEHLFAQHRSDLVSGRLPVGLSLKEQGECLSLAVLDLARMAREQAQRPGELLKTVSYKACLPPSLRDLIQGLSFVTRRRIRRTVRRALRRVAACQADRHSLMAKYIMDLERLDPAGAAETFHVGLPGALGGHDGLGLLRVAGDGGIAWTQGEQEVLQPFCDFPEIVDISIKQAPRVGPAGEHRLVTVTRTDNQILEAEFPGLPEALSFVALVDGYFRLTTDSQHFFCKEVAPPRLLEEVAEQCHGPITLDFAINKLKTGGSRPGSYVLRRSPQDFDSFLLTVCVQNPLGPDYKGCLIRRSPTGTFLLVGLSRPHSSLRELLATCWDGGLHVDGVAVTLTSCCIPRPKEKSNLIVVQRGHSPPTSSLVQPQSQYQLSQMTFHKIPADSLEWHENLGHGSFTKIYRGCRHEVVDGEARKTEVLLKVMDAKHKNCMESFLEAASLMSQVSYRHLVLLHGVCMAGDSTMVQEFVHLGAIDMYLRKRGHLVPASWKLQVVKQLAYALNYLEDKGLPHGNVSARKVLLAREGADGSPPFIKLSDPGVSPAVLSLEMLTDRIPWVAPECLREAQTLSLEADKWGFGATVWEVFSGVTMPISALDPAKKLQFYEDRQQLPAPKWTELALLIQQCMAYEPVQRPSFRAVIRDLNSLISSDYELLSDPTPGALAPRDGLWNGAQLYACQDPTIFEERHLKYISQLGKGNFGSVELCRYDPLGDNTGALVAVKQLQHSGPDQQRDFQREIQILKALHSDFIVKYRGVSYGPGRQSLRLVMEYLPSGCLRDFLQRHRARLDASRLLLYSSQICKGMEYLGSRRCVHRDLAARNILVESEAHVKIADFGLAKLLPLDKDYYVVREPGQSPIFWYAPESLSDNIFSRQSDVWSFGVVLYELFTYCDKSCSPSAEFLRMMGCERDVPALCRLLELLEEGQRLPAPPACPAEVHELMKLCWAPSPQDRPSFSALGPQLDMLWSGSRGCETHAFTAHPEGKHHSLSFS
In words: Inhibition of a panel of kinases, in vitro HotSpot kinase assay: JAK3. The class given is biochemical. The note with it: D-compounds panel data; 1 μM ATP; read-out: IC50 JAK3.

Assay [2] deals with T2, BTK-WT (Homo sapiens, UniProt Q06187).
T2 construct: purified from insect cells as a full-length construct containing an N-terminal 6X-His tag; His6 (N); made in house; host or cells: insect cells (baculovirus Sf21 in Method B)
In words: Btk in vitro inhibitory activity (one of Method A TR-FRET, Method B electrophoretic mobility shift, Method C radiometric filter binding). Format: biochemical. The note with it: D-compounds panel data; read-out: IC50 BTK-WT. Background: A gel shift assay detects complexes by their altered migration in electrophoresis.

T2 sequence (Q06187 whole entry): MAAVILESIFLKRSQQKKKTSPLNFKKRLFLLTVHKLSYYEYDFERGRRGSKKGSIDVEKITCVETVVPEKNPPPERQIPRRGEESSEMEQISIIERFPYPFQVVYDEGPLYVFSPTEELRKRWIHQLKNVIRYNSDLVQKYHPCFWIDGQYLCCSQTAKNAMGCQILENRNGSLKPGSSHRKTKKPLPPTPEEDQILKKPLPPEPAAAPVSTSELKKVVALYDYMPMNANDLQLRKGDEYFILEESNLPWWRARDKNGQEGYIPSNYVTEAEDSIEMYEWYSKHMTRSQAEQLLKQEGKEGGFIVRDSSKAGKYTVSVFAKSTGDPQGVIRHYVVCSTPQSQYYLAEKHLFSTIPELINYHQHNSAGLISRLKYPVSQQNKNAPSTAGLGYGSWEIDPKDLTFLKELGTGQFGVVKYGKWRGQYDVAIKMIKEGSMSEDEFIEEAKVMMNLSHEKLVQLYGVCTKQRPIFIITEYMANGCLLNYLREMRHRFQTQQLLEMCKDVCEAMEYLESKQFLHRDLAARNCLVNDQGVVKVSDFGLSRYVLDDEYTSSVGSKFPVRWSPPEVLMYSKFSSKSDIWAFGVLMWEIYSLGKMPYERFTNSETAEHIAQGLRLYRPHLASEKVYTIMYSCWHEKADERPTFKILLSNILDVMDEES

For `C[C@@H]1[C@H](NC(=O)c2ccc(C3CC3)cc2)CCCN1c1cnc(C(N)=O)c(Nc2ccc(N3CCC(F)(F)CC3)cc2)n1` [Example D-96, 5-[(2R,3R)-3-(4-cyclopropylbenzamido)-2-methylpiperidin-1-yl]-3-{[4-(4,4-difluoropiperidin-1-yl)phenyl]amino}pyrazine-2-carboxamide], the values for the IC50 in assay [1] and in assay [2] were 1000 to 10000 nM and 10 to 100 nM, respectively.
